Measurements reported in patent US5232923A, “Catechol derivatives and pharmaceutical preparations containing same” (Mitsui Toatsu Chemicals, Incorporated, priority 1988, dated 1993).

The compounds below were run on production and secretion of NGF in mouse brain astroglial cells (assay: Promoting activity for the production and secretion of NGF in mouse brain astroglial cells (ELISA of medium after 24 h)). Conditions: Mus musculus, 24 h, Table 3, sample concentration 0.2 mM, fold increase over control (1.00), read-out: NGF Increase Ratio.
Assay type: cell-based
Protocol: Promoting activity for the production and secretion of NGF in mouse brain astroglial cells
The experiment was performed by inducing astroglial cells from the mouse forebrain to a culture system according to the procedures of S. Furukawa et al. which is described in Biochem. Biophys. Res. Commun., 136, 57-63 (1986).
Forebrains of 8-days old mice were dissected out and cut into small pieces. The pieces were washed with calcium- and magnesium-free phosphate-bufferedsaline (hereinafter abbreviated as PBS), treated with 0.25% trypsin containing PBS at 37° C. for 30 minutes and triturated with a Pasteur pipet to give a suspension. Cells and cell clumps were recovered by centrifugation at 200 xg for 5 minutes. They were cultured in Dulbecco modified Eagle's medium (a product of Gibco Co. hereinafter abbreviated as DMEM) containing 10% fetal calf serum, 50 μ units/ml of penicillin, and 50 μg/ml of streptomycin, for 10 to 14 days with medium changes every 3 days. After completing confluency, the cells were dissociated by trypsin treatment and recultured in new culture flasks. This procedure was repeated further twice and more. The culture became a uniform cell cluster. The cell cluster for use in this invention can be stained not less than 97% in accordance with the PAP staining method (peroxidase/[…] staining method) using anti-human glial fibrillar acidic protein (GFAP) rabbit antiserum. The cells will hereinafter be referred to as astroglial cells.
Astroglial cells were innoculated in 24-well plates having a well surface area of 2.1 cm^2 (a product of Falcon Co.) at a cell density of about 3×10^4 cells/well and cultured for 3 days in DMEM medium supplemented with 10% of fetal calf serum. After completing confluency about ([…]), the medium was changed to DMEM medium (0.5 ml/well) supplemented with 0.5% of bovine serum albumin (fraction V) and cultured for 3 days. The culture was further continued with medium changes every 3 days. After cells were practically synchronized in the quiscent stage, the medium was changed to 0.5 ml of the same medium and containing a prescribed concentration of test sample as illustrated in the Tables. NGF in the medium after cultivating for 24 hours was determined by the ELISA as mentioned above. Data are expressed as fold increase in NGF content over that in the absence of the test sample. The lower detection limit of the ELISA is 0.25 pg/ml and the NGF content of control medium was normally 1-10 pg/0.5 ml/well. Data are presented as the mean of four determinations. The results are illustrated in Tables 1-5.

| SMILES | fold induction at 200 µM |
| --- | --- |
| CCCC(=O)NCCc1ccc(OC(C)=O)c(OC(C)=O)c1 [Compound 15] | 3.74 |

Same assay, conditions: Mus musculus, 24 h, Table 3, sample concentration 0.4 mM, fold increase over control (1.00), read-out: NGF Increase Ratio

| SMILES | fold induction at 400 µM |
| --- | --- |
| CC(=O)NCCc1ccc(OC(C)=O)c(OC(C)=O)c1 [Compound 13, N-Acetyl-3,4-diacetoxyphenethylamine] | 4.7 |
| CNCCCc1ccc(O)c(O)c1 [Compound 26] | 4.17 |
| CC(=O)NCCCc1ccc(O)c(O)c1 [Compound 7] | 4.46 |
| CC(=O)N(C)CCc1ccc(O)c(O)c1 [Compound 10] | 4.85 |
| CCCCNCCc1ccc(O)c(O)c1 [Compound 21] | 4.91 |
| Br.CCNCCc1ccc(O)c(O)c1 [Compound 19, N-Ethyl-3,4-dihydroxyphenethylamine hydrobromide] | 4.17 |
| CCCC(=O)N(C)CCc1ccc(O)c(O)c1 [Compound 12] | 4.89 |

Same assay, conditions: Mus musculus, 24 h, Table 4, sample concentration 0.2 mM, fold increase over control, read-out: NGF Increase Ratio

| SMILES | fold induction at 200 µM |
| --- | --- |
| CCOC(=O)CCCc1ccc(O)c(O)c1 [Compound 43] | 4.59 |
| CCCCOC(=O)CCc1ccc(O)c(O)c1 [Compound 37] | 4.83 |
| CN(C)C(=O)CCc1ccc(O)c(O)c1 [Compound 72] | 6.5 |
| CCNC(=O)CCCc1ccc(O)c(O)c1 [Compound 69] | 4.49 |

Same assay, conditions: Table 3, sample concentration 0.2 mM, 24 hours, control 42.3

| SMILES | NGF Concentration [ng/well] |
| --- | --- |
| CCCC(=O)NCCc1ccc(OC(C)=O)c(OC(C)=O)c1 [Compound 15] | 158.2 |

Same assay, conditions: Table 3, sample concentration 0.4 mM, 24 hours, control 42.3

| SMILES | NGF Concentration [ng/well] |
| --- | --- |
| CC(=O)NCCc1ccc(OC(C)=O)c(OC(C)=O)c1 [Compound 13, N-Acetyl-3,4-diacetoxyphenethylamine] | 198.8 |
| CNCCCc1ccc(O)c(O)c1 [Compound 26] | 176.5 |
| CC(=O)NCCCc1ccc(O)c(O)c1 [Compound 7] | 188.5 |
| CC(=O)N(C)CCc1ccc(O)c(O)c1 [Compound 10] | 205.2 |
| CCCCNCCc1ccc(O)c(O)c1 [Compound 21] | 207.5 |
| Br.CCNCCc1ccc(O)c(O)c1 [Compound 19, N-Ethyl-3,4-dihydroxyphenethylamine hydrobromide] | 176.3 |
| CCCC(=O)N(C)CCc1ccc(O)c(O)c1 [Compound 12] | 206.7 |

Same assay, conditions: Table 4, sample concentration 0.2 mM, 24 hours

| SMILES | NGF Concentration [ng/well] |
| --- | --- |
| CCOC(=O)CCCc1ccc(O)c(O)c1 [Compound 43] | 198.5 |
| CCCCOC(=O)CCc1ccc(O)c(O)c1 [Compound 37] | 208.5 |
| CN(C)C(=O)CCc1ccc(O)c(O)c1 [Compound 72] | 280.6 |
| CCNC(=O)CCCc1ccc(O)c(O)c1 [Compound 69] | 194.1 |

Each compound was assayed on production and secretion of NGF in mouse L-M cells (assay: Promoting activity for the production and secretion of NGF in mouse L-M cells (ELISA of medium after 24 h)). Conditions: Mus musculus, 24 h, read-out: NGF Increase Ratio.
Assay type: cell-based

| SMILES | fold induction at 200 µM |
| --- | --- |
| CCCCNCCc1ccc(O)c(O)c1 [Compound 21] | 11.5 |
| Br.CCNCCc1ccc(O)c(O)c1 [Compound 19, N-Ethyl-3,4-dihydroxyphenethylamine hydrobromide] | 10.6 |

Same assay, conditions: Mus musculus, 24 h; Table 1; L-M cells; sample concentration 0.2 mM; fold increase over control (1.00); read-out: NGF Increase Ratio

| SMILES | fold induction at 200 µM |
| --- | --- |
| CCCC(=O)NCCc1ccc(OC(C)=O)c(OC(C)=O)c1 [Compound 15] | 8.94 |
| CC(=O)NCCc1ccc(OC(C)=O)c(OC(C)=O)c1 [Compound 13, N-Acetyl-3,4-diacetoxyphenethylamine] | 12.2 |
| CNCCCc1ccc(O)c(O)c1 [Compound 26] | 8.61 |
| CC(=O)NCCCc1ccc(O)c(O)c1 [Compound 7] | 8.52 |
| CC(=O)N(C)CCc1ccc(O)c(O)c1 [Compound 10] | 9.7 |
| CCCC(=O)N(C)CCc1ccc(O)c(O)c1 [Compound 12] | 9.15 |

Same assay, conditions: Mus musculus, 24 h; Table 2; L-M cells; sample concentration 0.2 mM; fold increase over control (1.00); read-out: NGF Increase Ratio

| SMILES | fold induction at 200 µM |
| --- | --- |
| CCOC(=O)CCCc1ccc(O)c(O)c1 [Compound 43] | 5.53 |
| CCCCOC(=O)CCc1ccc(O)c(O)c1 [Compound 37] | 5.44 |
| CN(C)C(=O)CCc1ccc(O)c(O)c1 [Compound 72] | 5.91 |
| CCNC(=O)CCCc1ccc(O)c(O)c1 [Compound 69] | 5.53 |

Same assay, conditions: Table 1; L-M cells; sample concentration 0.2 mM; 24 hours; mean of four determinations; control 0.33

| SMILES | NGF Concentration [ng/well] |
| --- | --- |
| CCCC(=O)NCCc1ccc(OC(C)=O)c(OC(C)=O)c1 [Compound 15] | 2.95 |
| CC(=O)NCCc1ccc(OC(C)=O)c(OC(C)=O)c1 [Compound 13, N-Acetyl-3,4-diacetoxyphenethylamine] | 4.03 |
| CNCCCc1ccc(O)c(O)c1 [Compound 26] | 2.84 |
| CC(=O)NCCCc1ccc(O)c(O)c1 [Compound 7] | 2.81 |
| CC(=O)N(C)CCc1ccc(O)c(O)c1 [Compound 10] | 3.20 |
| CCCCNCCc1ccc(O)c(O)c1 [Compound 21] | 3.80 |
| Br.CCNCCc1ccc(O)c(O)c1 [Compound 19, N-Ethyl-3,4-dihydroxyphenethylamine hydrobromide] | 3.50 |
| CCCC(=O)N(C)CCc1ccc(O)c(O)c1 [Compound 12] | 3.02 |

Same assay, conditions: Table 2; L-M cells; sample concentration 0.2 mM; 24 hours; mean of four determinations; control 0.34

| SMILES | NGF Concentration [ng/well] |
| --- | --- |
| CCOC(=O)CCCc1ccc(O)c(O)c1 [Compound 43] | 1.88 |
| CCCCOC(=O)CCc1ccc(O)c(O)c1 [Compound 37] | 1.85 |
| CN(C)C(=O)CCc1ccc(O)c(O)c1 [Compound 72] | 1.94 |
| CCNC(=O)CCCc1ccc(O)c(O)c1 [Compound 69] | 1.88 |
